From patent US8598153B2, “Method of treatment using fatty acid synthesis inhibitors” (Merck Sharp & Dohme Corp., priority 2006, dated 2013) come the findings set out here.

The structures appear in SMILES notation.

As a reminder, the IC50 is the concentration that gives 50% inhibition.

In data set [1] the target is T1, human FAS (Homo sapiens, UniProt P49327).
T1 construct: Cell extracts were processed by ammonium sulfate precipitation followed by DEAE chromatography; endogenous in cells; host or cells: SkBr3 human breast cancer cells (endogenous FAS, partially purified)
T1 sequence (P49327 whole entry): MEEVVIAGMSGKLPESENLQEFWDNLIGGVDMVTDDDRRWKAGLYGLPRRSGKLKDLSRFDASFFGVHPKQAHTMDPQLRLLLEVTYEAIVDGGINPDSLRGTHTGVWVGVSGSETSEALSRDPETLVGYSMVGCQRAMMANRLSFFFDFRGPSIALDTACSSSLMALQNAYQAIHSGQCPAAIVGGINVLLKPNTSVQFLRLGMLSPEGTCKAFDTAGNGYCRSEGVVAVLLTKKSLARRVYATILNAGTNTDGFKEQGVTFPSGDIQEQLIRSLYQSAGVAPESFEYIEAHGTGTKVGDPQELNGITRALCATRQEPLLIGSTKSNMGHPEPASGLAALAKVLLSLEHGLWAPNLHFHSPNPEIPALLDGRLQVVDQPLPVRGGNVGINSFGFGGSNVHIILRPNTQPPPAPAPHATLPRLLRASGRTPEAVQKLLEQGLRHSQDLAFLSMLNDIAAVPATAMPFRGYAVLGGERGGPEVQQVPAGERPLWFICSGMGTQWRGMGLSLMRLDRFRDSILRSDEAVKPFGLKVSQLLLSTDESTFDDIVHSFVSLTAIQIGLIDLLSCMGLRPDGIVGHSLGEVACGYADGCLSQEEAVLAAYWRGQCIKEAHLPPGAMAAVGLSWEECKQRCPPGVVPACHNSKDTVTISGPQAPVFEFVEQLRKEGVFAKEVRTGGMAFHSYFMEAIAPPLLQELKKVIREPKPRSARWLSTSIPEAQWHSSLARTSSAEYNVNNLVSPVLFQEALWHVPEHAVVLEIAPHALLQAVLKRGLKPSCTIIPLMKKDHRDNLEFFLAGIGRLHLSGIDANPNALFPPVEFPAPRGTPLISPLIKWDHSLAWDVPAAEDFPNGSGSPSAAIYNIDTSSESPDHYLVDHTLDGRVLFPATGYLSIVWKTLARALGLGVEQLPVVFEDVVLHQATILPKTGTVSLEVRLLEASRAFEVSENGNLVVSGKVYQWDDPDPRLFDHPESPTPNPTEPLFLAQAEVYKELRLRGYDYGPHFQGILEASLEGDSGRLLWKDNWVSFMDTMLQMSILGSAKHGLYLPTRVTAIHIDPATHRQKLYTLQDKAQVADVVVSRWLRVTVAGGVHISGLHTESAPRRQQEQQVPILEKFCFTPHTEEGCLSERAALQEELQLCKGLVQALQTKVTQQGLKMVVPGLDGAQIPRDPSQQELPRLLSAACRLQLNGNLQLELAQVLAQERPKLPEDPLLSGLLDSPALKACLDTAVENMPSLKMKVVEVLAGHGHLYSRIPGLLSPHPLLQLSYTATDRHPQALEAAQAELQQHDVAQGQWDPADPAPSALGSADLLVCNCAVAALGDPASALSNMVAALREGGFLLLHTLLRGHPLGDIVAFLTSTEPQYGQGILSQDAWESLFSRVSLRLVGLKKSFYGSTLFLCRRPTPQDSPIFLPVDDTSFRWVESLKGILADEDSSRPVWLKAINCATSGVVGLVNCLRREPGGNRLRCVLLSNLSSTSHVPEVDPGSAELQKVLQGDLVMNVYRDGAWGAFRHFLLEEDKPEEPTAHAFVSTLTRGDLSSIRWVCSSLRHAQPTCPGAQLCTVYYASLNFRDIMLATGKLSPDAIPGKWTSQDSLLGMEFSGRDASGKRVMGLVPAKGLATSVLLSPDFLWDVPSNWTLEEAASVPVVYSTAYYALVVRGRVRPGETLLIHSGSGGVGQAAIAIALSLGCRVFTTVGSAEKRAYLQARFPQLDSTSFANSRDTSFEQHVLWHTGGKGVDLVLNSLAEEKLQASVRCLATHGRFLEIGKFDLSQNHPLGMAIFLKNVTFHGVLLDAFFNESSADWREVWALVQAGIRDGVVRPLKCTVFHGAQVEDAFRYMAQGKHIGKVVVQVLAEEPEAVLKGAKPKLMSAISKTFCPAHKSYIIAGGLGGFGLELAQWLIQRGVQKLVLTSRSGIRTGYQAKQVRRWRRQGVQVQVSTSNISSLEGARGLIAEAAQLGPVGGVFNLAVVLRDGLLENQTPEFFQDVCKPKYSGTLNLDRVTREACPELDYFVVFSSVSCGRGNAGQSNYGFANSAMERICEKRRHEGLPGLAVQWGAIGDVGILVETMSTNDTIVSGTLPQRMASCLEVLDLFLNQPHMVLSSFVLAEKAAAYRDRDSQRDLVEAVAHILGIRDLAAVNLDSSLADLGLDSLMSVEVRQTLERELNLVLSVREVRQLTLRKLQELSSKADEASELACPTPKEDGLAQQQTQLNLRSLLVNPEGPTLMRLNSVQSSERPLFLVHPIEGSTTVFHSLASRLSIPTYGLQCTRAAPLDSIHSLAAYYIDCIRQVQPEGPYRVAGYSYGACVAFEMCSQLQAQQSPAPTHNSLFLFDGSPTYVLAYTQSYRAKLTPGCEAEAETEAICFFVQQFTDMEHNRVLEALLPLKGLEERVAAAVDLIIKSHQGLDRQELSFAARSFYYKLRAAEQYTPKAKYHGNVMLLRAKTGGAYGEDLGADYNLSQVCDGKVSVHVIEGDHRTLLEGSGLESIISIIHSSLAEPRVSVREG
Kind of data set: FAS inhibitory activity in cell free Flashplate assay (formation of 3H-palmitate), human FAS. It is filed as biochemical. The settings on record: human FAS from SkBr3 cells, cell free flash plate assay. On the procedure: (§1) Compounds with formula I (platensimycin) and II (platencin) were titrated against human or rat FAS using the Flashplate assay. Animal FAS activity was assayed radiochemically for the formation of ^3H-palmitate. The assay buffer contained 200 mM KPi, pH 7, 2 mM EDTA, 2.5 mM DTT, 5 μM Acetyl CoA (^3H-acetyl-CoA, Specific Activity=0.3 Ci/mmole), 21 μM malonyl-CoA, and 20 uM NADPH in a final reaction volume of 200 μl Assays are performed in 96-well Phospholipid coated FlashPlates (Perkin Elmer). The reaction was initiated by adding FAS (0.17 mUnits/well, 1 Unit=1μ mole of NADPH consumed/minute). The plates were incubated at RT for 5 minutes before adding 6 μl of perchloric acid to stop the reaction. The plates sat at RT for at least 3 hours, preferably overnight, before counting. Background was determined from wells without malonyl CoA. The source of Human FAS was SkBr3 cells. Cell extracts were processed by ammonium sulfate precipitation followed by DEAE chromatography essentially as described by Jayakumar et al., 1995 (Jayakumar A, Tai M H, Huang W Y, al-Feel W, Hsu M, Abu-Elheiga L, Chirala S S, Wakil S J. Human fatty acid synthase: properties and molecular cloning. Proc Natl Acad Sci USA. 1995 Sep. 12; 92(19):8695-9). […]

The target of data set [2] is T2, rat FAS (Rattus norvegicus, UniProt P12785).
T2 construct: The clarified supernatant was fractionated by ammonium sulfate precipitation; from tissue; host or cells: rat liver (fasted and high carbohydrate re-fed rats)
T2 sequence (P12785 whole entry): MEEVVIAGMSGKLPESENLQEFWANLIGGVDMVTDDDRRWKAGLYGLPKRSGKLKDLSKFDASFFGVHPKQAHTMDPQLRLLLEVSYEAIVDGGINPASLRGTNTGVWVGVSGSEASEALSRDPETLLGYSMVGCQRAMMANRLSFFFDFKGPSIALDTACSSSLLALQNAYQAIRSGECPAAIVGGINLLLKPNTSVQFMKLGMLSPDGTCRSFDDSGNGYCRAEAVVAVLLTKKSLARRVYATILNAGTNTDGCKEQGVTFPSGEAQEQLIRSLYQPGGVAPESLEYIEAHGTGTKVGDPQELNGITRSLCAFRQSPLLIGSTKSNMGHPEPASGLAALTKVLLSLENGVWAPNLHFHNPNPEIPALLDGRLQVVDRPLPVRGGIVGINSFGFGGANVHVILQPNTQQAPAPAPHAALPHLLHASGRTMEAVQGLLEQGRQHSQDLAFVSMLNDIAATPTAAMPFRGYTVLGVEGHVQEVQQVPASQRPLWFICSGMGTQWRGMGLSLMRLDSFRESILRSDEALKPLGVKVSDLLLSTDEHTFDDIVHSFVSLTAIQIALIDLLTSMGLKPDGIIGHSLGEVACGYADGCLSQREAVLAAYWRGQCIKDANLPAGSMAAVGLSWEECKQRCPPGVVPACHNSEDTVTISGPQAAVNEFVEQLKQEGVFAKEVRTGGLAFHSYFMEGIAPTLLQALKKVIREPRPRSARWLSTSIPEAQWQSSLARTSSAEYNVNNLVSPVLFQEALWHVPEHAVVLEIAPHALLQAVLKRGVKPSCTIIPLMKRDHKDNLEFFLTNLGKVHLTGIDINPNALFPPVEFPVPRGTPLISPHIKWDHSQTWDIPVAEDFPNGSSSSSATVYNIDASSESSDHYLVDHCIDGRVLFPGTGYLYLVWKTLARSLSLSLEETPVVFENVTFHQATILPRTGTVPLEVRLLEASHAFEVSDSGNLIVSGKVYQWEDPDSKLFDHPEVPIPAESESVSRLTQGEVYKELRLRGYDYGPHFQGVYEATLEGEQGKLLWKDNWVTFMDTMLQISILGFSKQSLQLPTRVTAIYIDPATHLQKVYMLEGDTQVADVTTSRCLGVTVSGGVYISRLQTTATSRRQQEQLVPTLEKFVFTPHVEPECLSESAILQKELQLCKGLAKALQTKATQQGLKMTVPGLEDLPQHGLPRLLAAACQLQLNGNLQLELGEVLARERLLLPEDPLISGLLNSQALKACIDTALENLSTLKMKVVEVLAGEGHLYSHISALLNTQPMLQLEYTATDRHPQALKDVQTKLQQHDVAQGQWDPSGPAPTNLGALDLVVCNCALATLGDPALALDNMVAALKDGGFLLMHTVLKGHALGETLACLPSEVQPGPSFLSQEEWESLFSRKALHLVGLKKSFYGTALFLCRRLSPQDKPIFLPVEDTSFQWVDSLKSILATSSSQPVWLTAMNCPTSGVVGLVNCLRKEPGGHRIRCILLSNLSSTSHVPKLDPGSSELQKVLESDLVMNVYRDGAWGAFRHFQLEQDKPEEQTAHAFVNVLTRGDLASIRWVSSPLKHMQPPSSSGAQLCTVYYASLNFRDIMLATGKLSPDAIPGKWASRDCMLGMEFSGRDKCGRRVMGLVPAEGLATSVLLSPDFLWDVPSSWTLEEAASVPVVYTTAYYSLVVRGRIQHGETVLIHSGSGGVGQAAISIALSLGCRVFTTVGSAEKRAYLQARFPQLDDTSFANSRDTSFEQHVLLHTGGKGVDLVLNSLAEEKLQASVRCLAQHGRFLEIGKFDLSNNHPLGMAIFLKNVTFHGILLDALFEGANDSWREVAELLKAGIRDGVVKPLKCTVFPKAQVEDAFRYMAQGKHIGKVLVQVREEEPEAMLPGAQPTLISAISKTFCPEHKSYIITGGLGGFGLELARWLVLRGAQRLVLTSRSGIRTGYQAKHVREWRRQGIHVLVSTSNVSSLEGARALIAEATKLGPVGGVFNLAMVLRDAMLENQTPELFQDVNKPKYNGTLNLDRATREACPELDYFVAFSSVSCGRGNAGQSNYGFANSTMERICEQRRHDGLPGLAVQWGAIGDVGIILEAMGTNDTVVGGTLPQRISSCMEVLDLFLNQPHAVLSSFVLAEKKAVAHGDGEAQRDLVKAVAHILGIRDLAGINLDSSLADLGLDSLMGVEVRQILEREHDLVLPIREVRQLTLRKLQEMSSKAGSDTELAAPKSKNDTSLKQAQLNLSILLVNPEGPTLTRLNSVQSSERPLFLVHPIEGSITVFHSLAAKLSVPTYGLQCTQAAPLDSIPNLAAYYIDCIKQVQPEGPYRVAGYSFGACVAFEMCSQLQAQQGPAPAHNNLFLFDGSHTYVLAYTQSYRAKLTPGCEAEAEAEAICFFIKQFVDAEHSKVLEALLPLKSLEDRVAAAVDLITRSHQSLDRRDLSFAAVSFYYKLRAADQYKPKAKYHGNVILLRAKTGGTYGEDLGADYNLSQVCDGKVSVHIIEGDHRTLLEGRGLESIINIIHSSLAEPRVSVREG
In words: FAS inhibitory activity in cell free Flashplate assay (formation of 3H-palmitate), rat FAS. The settings on record: rat liver FAS, cell free flash plate assay. It is filed as biochemical. Here is the method: as §1

In data set [3] the test system is fatty acid synthesis in rat hepatocytes. Kind of data set: Fatty acid synthesis in rat hepatocytes in vitro (C14-acetate incorporation). It is filed as cell-based. The conditions noted are these: Hepatocyte, primary rat hepatocytes, read-out: Rat IC50 μM, fatty acid synthesis inhibitory activity. An excerpt:
115: 1030-1038 (2003) with modifications. […] The plates were gassed and sealed.

Data set [4] has as its system fatty acid oxidation in rat hepatocytes.
Experimental: Fatty acid oxidation in the hepatocytes was determined the conversion of C14-oleic acid to soluble acid products as described (Jiang G, Li Z, Liu F, Ellsworth K, Dallas-Yang Q, Wu M, Ronan J, Essau C, Murphy C, Szalkowski D, Bergeron R, Doebber T and Zhang B. Prevention of obesity in mice by antisense oligonucleotide inhibitors of stearoyl-CoA desaturase-1. J. Clin. Invest. 115: 1030-1038 (2003); Mannaerts G P, Debeer L J, Thomas J, ans DeSchepper P J. Mitochondrial and proxisomal fatty acid oxidation in liver homogenates and isolated hepatocytes from control and clofibrate-treated rats. J. Biol. Chem. 254:4585-4595 (1979)) with modifications. Hepatocytes seeded overnight and washed twice with PBS and then pre-incubated with compounds in 5 μl of DMSO in 2 ml medium199 plus 0.25% bovine serum albumin for 60 min. C14-oleic acid 0.25 μCi (NEN) was added to each well. The plates were gassed and sealed. After one hr incubation, 1 ml of medium was removed, mixed with 100 μl of 10% BSA and then 100 μl 60% HClO4. After centrifugation, 1 ml of the solution was counted the level of soluble acid products.

With `C[C@]12C[C@@]34C=CC(=O)[C@@](C)(CCC(=O)Nc5c(O)ccc(C(=O)O)c5O)C3[C@H](CC1C4)O2` (stereo partly shown) [Formula I, platensimycin], the values for the IC50 in data set [1], in data set [2] and in data set [3] were 0.3 µM, 0.18 µM and 0.093 µM, respectively. In data set [4], the “Inhibition of Oxidation of Fatty Acids, Rat Hepatocyte (% of control at 10 uM)” value is on record as 59.7 % of control.

As to `C=C1C[C@@]23C=CC(=O)[C@@](C)(CCC(=O)Nc4c(O)ccc(C(=O)O)c4O)[C@@H]2C[C@@H]1CC3` [Formula II, platencin], the IC50 in data set [1] stood at 6.3 µM; in data set [3], 3.24 µM. In addition, the “Inhibition of Oxidation of Fatty Acids, Rat Hepatocyte (% of control at 10 uM)” value in data set [4] is recorded as 66.0 % of control.
